molecular target: Carbonic anhydrase 13 (Mus musculus, UniProt Q9D6N1)
Sequence (Q9D6N1 whole entry): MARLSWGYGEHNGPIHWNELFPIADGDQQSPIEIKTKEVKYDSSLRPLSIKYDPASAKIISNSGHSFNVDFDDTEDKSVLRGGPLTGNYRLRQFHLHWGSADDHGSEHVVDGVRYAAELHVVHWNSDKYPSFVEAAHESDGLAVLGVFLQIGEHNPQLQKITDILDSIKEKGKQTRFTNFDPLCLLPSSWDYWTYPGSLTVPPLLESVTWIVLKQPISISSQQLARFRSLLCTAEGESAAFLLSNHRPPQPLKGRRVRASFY
Description: Inhibitory activity against murine carbonic anhydrase XIII (mCA XIII) by using CO2 hydrase assay method

Ki [nM]	Structure (SMILES)
1.9	Nc1ccc(S(=O)(=O)NCc2ccc(S(N)(=O)=O)cc2)cc1
50	Nc1ccc(S(N)(=O)=O)cc1I
50	Nc1ccc(S(N)(=O)=O)cc1F
56	Nc1ccc(S(N)(=O)=O)cc1Cl
1.3	Nc1ccc(S(=O)(=O)NCCc2ccc(S(N)(=O)=O)cc2)cc1
41	NCc1ccc(S(N)(=O)=O)cc1 [MAFENIDE]

Second part, the compound before the results:

Structure (SMILES)	Ki [nM]
Nc1ccc(S(=O)(=O)Nc2ccc(S(N)(=O)=O)cc2)cc1	2.4
Nc1ccccc1S(N)(=O)=O	43
Nc1ccc(S(N)(=O)=O)cc1Br	54
NCCc1ccc(S(N)(=O)=O)cc1	43
Nc1ccc(S(N)(=O)=O)cc1 [SULFANILAMIDE]	32

Reference: ChEMBL document CHEMBL1146805, “Carbonic anhydrase inhibitors. Inhibition of cytosolic isozyme XIII with aromatic and heterocyclic sulfonamides: a novel target for the drug design” (Bioorg Med Chem Lett, 2004)
